Results on one compound are retold here after patent publication US20100215631A1, “ANTI-INFLAMMATORY COMPOSITION COMPRISING GLYCINE AND LACTOFERRIN AND THE USE THEREOF” (priority 2006, published 2010).

One test has as its system Balb/C mice. As to the kind of experiment: Zymosan-induced ear swelling in an inflammatory mouse model (Example 1). In kind it is in vivo. The following applies: daily gavage 0.1 mg lactoferrin and/or 50 mg glycine, versus non-supplemented mice. The procedure:
Balb/C mice (8 weeks of age, Charles River, Maastricht, The Netherlands) were randomly assigned two control and three test groups and supplemented daily for three days with 0.1 mg lactoferrin (DMV, Veghel, The Netherlands), 50 mg glycine (Sigma, Zwijndrecht, The Netherlands) or a combination of both components (test groups 3, 4 and 5 respectively) or vehicle (control groups 1 and 2) was administered by gavage. At day two of the supplementation ear thickness was measured using a micrometer (Mitutoyo Digimatic, Veenendaal, The Netherlands) Subsequently 25 μl 0.5% zymosan (Sigma) in PBS (group 2-5) or vehicle (group 1) was injected subcutaneously in both ears. Ear thickness was measured 3, 6 and 24 hours (example 1) after injection after which the animals were sacrificed.
In mice injected in the ear with zymosan, lactoferrin (LF) and glycine (Gly) supplemented mice show a highest decrease in ear swelling when compared to non-supplemented mice, see Table 1. A clear synergistic effect of LF and Gly is observed.

Another test concerns TNF-α producing cells. Description: Ex-vivo ELISpot of TNF-α producing spleen cells from supplemented mice with zymosan-induced ear inflammation (Example 2). Format: in vivo. The following applies: 1 μg/ml LPS, after three days of oral supplementation. The protocol:
The spleen was removed and pushed through a cell strainer. Red blood cell lysis was performed in 5 ml of could lysis buffer (4.15 g NH4Cl, 0.5 g KHCO3 and 18.6 mg Na2EDTA in 1 liter water at pH 7,3) for 5 minutes. Cells were washed twice in could RPMI (Invitrogen, Merelbeke, Belgium) and after centrifugation diluted to a concentration of 1.10^7 cells/ml. TNF-α producing cells were detected by ELISpot assay in the absence or presence of 1 μg/ml lipopolysaccharide (Sigma) (example 2).
Spleen cells were collected from mice with a zymosan-induced inflammation in the ear after three days of oral supplementation with water (=control), lactoferrin (LF), glycine or a combination of LF and glycine. The number of TNF-α producing cells was determined using an ELISpot assay. LF and glycine inhibit the LPS stimulated number of TNF producing cells by 92% and 97% respectively (back to not zymosan treated control levels). The combination of glycine and lactoferrin inhibited the number of TNF-α positive cells 50% below the […] injected control. This unexpected high rate of inhibition makes the combination of glycine with lactoferrin an excellent choice for the treatment of inflammatory diseases.

`NCC(=O)O` [Glycine, glycine]: the entries for the “Decrease in ear swelling” value in the test with Balb/C mice (3 hrs after zymosan injection in ears) and in the test with Balb/C mice (6 hrs after zymosan injection in ears) were 10 ± 16 and 28 ± 20, respectively. For the same compound, the “Inhibition of the LPS stimulated number of TNF producing cells” value in the test with TNF-α producing cells was 97%.
